How the values were obtained:
rats [1] = assay: acute oral toxicity in rats (LD50); assay type: in vivo, rat; details: weight for weight basis
[2] = system: Common garden slugs (Arion distinctus); assay: slug mucosal contact test (mucus production and body weight loss); assay type: in vivo; details: for Mucus loss initial test / Mucus loss 24 test: 30-min contact, % of body weight; for Mucus loss initial test: 60 mg test substance, mean n = 6, initial treatment; for Mucus loss 24 test: second treatment 24 hours later; for Mucus loss 24 test / Remaining body weight after 24 h and 48 h: mean n = 6; for Potency - loss of body weight relative to metaldehyde after deduction of weight loss from the control: after 48 hours; for Potency - loss of body weight relative to metaldehyde after deduction of weight loss from the control / Potency - loss of mucus relative to metaldehyde: metaldehyde = 100; for Combined mucus loss: combined losses of mucus for the two tests; for toxicity in mollusc foot contact tests relative to metaldehyde: contact with the mucus membrane of molluscs; for Potency - loss of mucus relative to metaldehyde: from combined mucus loss; for Remaining body weight after 24 h and 48 h: percentage of the initial body weight; for Reduction in toxic response relative to metaldehyde: Loss of body weight (Table 3) / Reduction in toxic response relative to metaldehyde: Loss of mucus (Table 2): weight for weight basis
Experimental: To investigate relative toxicity of aldehydes to molluscs, tests were conducted using a method adapted from Adriaens et al. The Mucosal Toxicity of Different Benzalkonium Chloride Analogues Evaluated with an Alternative Test. Pharmaceutical Research, Vol. 18, pages 937-941, 2001.
Common garden slugs (Arion distinctus) weighing between 1.9 g and 5.2 g were collected from a UK suburban garden and placed into vented plastic boxes lined with paper towels moistened with phosphate buffered saline. The boxes were kept in the shade inside a greenhouse (10° C. minimum) and fed with lettuce and commercial dog food. Experiments were conducted on six slugs for each test treatment using petri dishes containing Whitman Grade 1 general purpose filter papers (90 mm diameter). Filter papers were wetted to saturation with phosphate buffered saline (pH 7.4) and allowed to drain before placing in the petri dishes. At the beginning of each test slugs were placed individually in a petri dish which had been prepared 3 hours previously as a control or with 60 mg of the test substance consisting of fine powdered metaldehyde or a liquid aldehyde. After 30-min incubation slugs were removed and returned to petri dishes with filter papers wetted only with the phosphate buffered saline. The slugs were weighed separately before and after treatment. The change in weight caused by the treatment was calculated and expressed as % (w/w) of the body weight. The petri dishes containing the test medium were also weighed before and after the treatment. The weight of mucus produced was calculated and expressed as % (w/w) of the body weight. The treatment and measurements were repeated 24 hour later and final weights taken after a second 24 hour period.

rats [3] = details: cited from earlier work
[4] = cited from earlier work; for Water solubility: at 25 C.; for VP: at 25 deg C.

Compound	oral toxicity in rats lower relative to metaldehyde (rats [1])	Mucus loss initial test [2]	Mucus loss 24 test [2]	Potency - loss of body weight relative to metaldehyde after deduction of weight loss from the control [2]	Combined mucus loss [2]	toxicity in mollusc foot contact tests relative to metaldehyde [2]	Potency - loss of mucus relative to metaldehyde [2]	Remaining body weight after 24 h and 48 h ([2]; 24 h after initial treatment)	Remaining body weight after 24 h and 48 h ([2]; 48 h after initial treatment)	Reduction in toxic response relative to metaldehyde: Loss of body weight (Table 3) [2]	Reduction in toxic response relative to metaldehyde: Loss of mucus (Table 2) [2]	LD50 acute oral toxicity (rats [3])	Water solubility [4]	VP [4]
CCCCCCCCCC=O [1-decanal]	approximately 8 fold	3.28 % w/w	2.64 % w/w	40%	5.92 % w/w	less than single fold reductions	62%	79.7 wt %	74.1 wt %	0.40	0.62	LD 50 3096 mg/kg	43.52 µg/mL	0.235 mm Hg
CCCCCCC=O [1-heptanal]	approximately 8 fold	2.77 % w/w	0.55 % w/w	33%	3.32 % w/w	less than single fold reductions	35%	85.2 wt %	76.5 wt %	0.35	0.35	LD50 > 5000 mg/kg	1167 µg/mL	3.52 mm Hg
CCCCCCCCC=O [1-nonanal]												LD 50 > 5000 mg/kg		0.564 mm Hg
CCCCCCCC=O [1-octanal]	approximately 8 fold	3.82 % w/w	2.98 % w/w	58%	6.8 % w/w	less than single fold reductions	72%	78.6 wt %	68.7 wt %	0.58	0.72	LD 50 4616 mg/kg	394.3 µg/mL	1.49 mm Hg
CC=O [Acetaldehyde, reference compound]												LD50 661 mg/kg		902 mm Hg
CCCC=O [Butanal]														108 mm Hg
CCCCCC=O [Hexanal]														9.57 mm Hg
CC1OC(C)OC(C)OC(C)O1 (stereo not shown) [Metaldehyde, reference compound]		5.55 % w/w	3.94 % w/w	100%	9.49 % w/w		100%	68.5 wt %	55.4 wt %			LD50 630 mg/kg		0.000674 mm Hg
CC1OC(C)OC(C)O1 (stereo not shown) [Paraldehyde, reference compound]												LD 50 2711 mg/kg	24140 µg/mL	15.7 mm Hg
CCC=O [Propanal, reference compound]														317 mm Hg

Source: patent publication US20190373887A1, “ENCAPSULATED MOLUSCICIDE” (INGWERMAT LIMITED, priority 2015, published 2019)
